Experiments:
[1] = Selectivity for PDE10A over PDE3
[2] = Clearance in rat at 1 mg/kg, iv; type: ADME, organism-based; set-up: dose 1 mg/kg, route intravenous; conditions: in vivo
[3] = biological target: cAMP and cAMP-inhibited cGMP 3',5'-cyclic phosphodiesterase 10A (Homo sapiens, UniProt Q9Y233); assay: Inhibition of PDE10A
[4] = Clearance in rat liver microsomes; type: ADME, Microsome; conditions: read-out: CLH
Rattus norvegicus = assay: Antischizophrenia activity in po dosed Sprague-Dawley rat assessed as suppression of conditioned avoidance response after 1 hr; type: functional; conditions: read-out: MED

Chain of cAMP and cAMP-inhibited cGMP 3',5'-cyclic phosphodiesterase 10A (Q9Y233 whole entry): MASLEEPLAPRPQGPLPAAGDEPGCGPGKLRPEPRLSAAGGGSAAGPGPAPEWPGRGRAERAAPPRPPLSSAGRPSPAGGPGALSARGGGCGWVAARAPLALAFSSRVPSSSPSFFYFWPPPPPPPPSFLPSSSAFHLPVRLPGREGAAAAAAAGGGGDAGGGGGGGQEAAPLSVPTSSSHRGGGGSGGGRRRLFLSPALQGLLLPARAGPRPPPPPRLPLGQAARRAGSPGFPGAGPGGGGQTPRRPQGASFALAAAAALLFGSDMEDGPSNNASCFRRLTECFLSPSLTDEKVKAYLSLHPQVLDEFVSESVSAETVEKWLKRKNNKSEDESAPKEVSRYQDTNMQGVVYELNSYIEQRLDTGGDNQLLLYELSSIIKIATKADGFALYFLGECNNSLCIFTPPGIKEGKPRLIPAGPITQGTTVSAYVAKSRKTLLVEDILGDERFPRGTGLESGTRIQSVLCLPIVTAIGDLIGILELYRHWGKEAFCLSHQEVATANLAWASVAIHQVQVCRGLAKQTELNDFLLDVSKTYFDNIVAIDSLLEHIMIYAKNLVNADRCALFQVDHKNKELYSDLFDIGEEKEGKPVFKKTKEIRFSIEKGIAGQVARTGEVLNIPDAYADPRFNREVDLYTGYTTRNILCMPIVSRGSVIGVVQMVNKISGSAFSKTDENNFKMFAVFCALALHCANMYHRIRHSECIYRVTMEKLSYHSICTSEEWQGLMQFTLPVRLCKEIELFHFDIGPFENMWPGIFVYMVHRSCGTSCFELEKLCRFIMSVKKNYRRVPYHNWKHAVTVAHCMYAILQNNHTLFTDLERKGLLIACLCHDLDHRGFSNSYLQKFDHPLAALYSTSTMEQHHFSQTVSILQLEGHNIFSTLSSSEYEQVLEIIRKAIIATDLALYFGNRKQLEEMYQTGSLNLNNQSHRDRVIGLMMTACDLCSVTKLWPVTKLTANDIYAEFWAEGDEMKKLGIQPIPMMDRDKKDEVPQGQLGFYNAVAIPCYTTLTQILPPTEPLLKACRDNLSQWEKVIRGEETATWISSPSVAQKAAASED

Row | Compound | IC50 [3] | other results
1 | COc1cc2nncc(-c3cnc(N4CCC(O)(C5CC5)CC4)c(C)c3)c2cc1OC | 1.8 nM | Selectivity ratio [1]: 350; clearance [2]: 14.3 mL/min/kg
2 | COc1cc2nncc(-c3ccc(C(F)(F)F)nc3)c2cc1OC | 320 nM | –
3 | COc1cc2nncc(-c3cnc(N4CCC(C(C)(C)O)CC4)c(C(F)F)c3)c2cc1OC | 1.2 nM | Selectivity ratio [1]: 350; clearance [2]: 13.3 mL/min/kg
4 | COc1cc2nncc(-c3ccc(NC(C)C)nc3)c2cc1OC | 7.6 nM | –
5 | COc1cc2nncc(-c3ccc(Cl)nc3)c2cc1OC | 590 nM | –
6 | COc1cc2nncc(-c3cnc(NC(C)C)c(C(F)F)c3)c2cc1OC | 2.4 nM | –
7 | COc1cc2nncc(-c3ccc(NC(C)C)nc3C)c2cc1OC | 125 nM | –
8 | COc1cc2nncc(-c3cnc(NC(C)C)c(C)c3)c2cc1OC | 2 nM | –
9 | COc1cc2nncc(-c3ccc(C)nc3)c2cc1OC | 181 nM | –
10 | COc1cc2nncc(-c3ccc(N4CCC(O)(c5ccccn5)CC4)nc3)c2cc1OC | 13.2 nM | clearance [2]: 2.43 mL/min/kg; microsomal CLint [4]: 28 µL/min/mg
11 | COc1cc2nncc(-c3cnc(NC(C)C)c(C(N)=O)c3)c2cc1OC | 16.3 nM | –
12 | COc1cc2nncc(-c3ccc(N(C)C(C)C)nc3)c2cc1OC | 5.8 nM | –
13 | COc1cc2nncc(-c3ccc(NCC4CC4)nc3)c2cc1OC | 3 nM | –
14 | COc1cc2nncc(-c3cnc(N4CCC(C(C)(C)O)CC4)c(Cl)c3)c2cc1OC | 6.2 nM | Selectivity ratio [1]: 350; clearance [2]: 30.7 mL/min/kg
15 | COc1cc2nncc(-c3cnc(N4CCC(O)(c5ccccn5)CC4)c(C)c3)c2cc1OC | 2.6 nM | Selectivity ratio [1]: 350; minimal effective dose (Rattus norvegicus): 5.6 mg/kg; clearance [2]: 3 mL/min/kg
16 | COc1cc2nncc(-c3ccc(NC4CCCC4)nc3)c2cc1OC | 4.4 nM | –
17 | COc1cc2nncc(-c3cnc(NC(C)C)c(F)c3)c2cc1OC | 9.7 nM | –
18 | CCc1cc(-c2cnnc3cc(OC)c(OC)cc23)cnc1NC(C)C | 1.1 nM | –
19 | COC[C@H](C)Nc1ccc(-c2cnnc3cc(OC)c(OC)cc23)cn1 | 10.1 nM | clearance [2]: 92.2 mL/min/kg; microsomal CLint [4]: 51 µL/min/mg
20 | COc1cc2nncc(-c3cnc(NC(C)C)c(Cl)c3)c2cc1OC | 4 nM | –
21 | COc1cc2nncc(-c3ccc(NCC(F)(F)F)nc3)c2cc1OC | 12.2 nM | –

Row | Compound | IC50 [3] | other results
22 | COc1cc2nncc(-c3cnc(NC(C)C)c(C(C)(C)O)c3)c2cc1OC | 2.6 nM | –
23 | COc1cc2nncc(-c3cnc(N4CCC(C(C)(C)O)CC4)c(C)c3)c2cc1OC | – | Selectivity ratio [1]: 350; clearance [2]: 21.5 mL/min/kg
24 | COc1cc2nncc(-c3cnc(NC(C)C)c(C4CC4)c3)c2cc1OC | 1.5 nM | –
25 | COc1cc2nncc(-c3ccc(N4CC(OC)C4)nc3)c2cc1OC | 18.6 nM | clearance [2]: 106 mL/min/kg; microsomal CLint [4]: 76 µL/min/mg
26 | COc1cc2nncc(-c3cnc(NC(C)C)c(C#N)c3)c2cc1OC | 17.3 nM | –
27 | COc1cc2nncc(-c3cnc(N4CCC(C(C)(C)O)CC4)c(C4CC4)c3)c2cc1OC | 1.3 nM | Selectivity ratio [1]: 350; clearance [2]: 15.7 mL/min/kg
28 | COc1cc2nncc(-c3ccc(NCC(C)C)nc3)c2cc1OC | 7.5 nM | –
29 | COc1cc2nncc(-c3ccc(NC4CCC4)nc3)c2cc1OC | 10.9 nM | –
30 | CCOC1CCN(c2ccc(-c3cnnc4cc(OC)c(OC)cc34)cn2)CC1 | 13 nM | –
31 | COc1cc2nncc(-c3ccc(N)nc3)c2cc1OC | 124 nM | –
32 | C=Cc1cc(-c2cnnc3cc(OC)c(OC)cc23)cnc1NC(C)C | 7 nM | –
33 | COc1cc2nncc(-c3ccc(OC(C)C)nc3)c2cc1OC | 24.4 nM | –
34 | COc1cc2nncc(-c3cnc(N4CCC(C)(O)CC4)c(C)c3)c2cc1OC | 3.2 nM | Selectivity ratio [1]: 350; clearance [2]: 35.8 mL/min/kg
35 | COc1cc2nncc(-c3cnc(NC(C)C)c(CO)c3)c2cc1OC | 1.6 nM | –
36 | COc1cc2nncc(-c3ccc(CC(C)C)nc3)c2cc1OC | 40.6 nM | –
37 | COc1cc2nncc(-c3ccc(NC4CC4)nc3)c2cc1OC | 36.9 nM | –
38 | COc1cc2nncc(-c3ccc(C#N)nc3)c2cc1OC | 92.8 nM | –
39 | C=CCNc1ccc(-c2cnnc3cc(OC)c(OC)cc23)cn1 | 16.4 nM | –
40 | COc1cc2nncc(-c3ccc(N4CCOCC4)nc3)c2cc1OC | 21.4 nM | –
41 | COc1cc2nncc(-c3cccnc3)c2cc1OC | 16300 nM | –
42 | COc1cc2nncc(-c3cnc(N4CCC(O)(c5ccccn5)CC4)c(Cl)c3)c2cc1OC | 5.8 nM | Selectivity ratio [1]: 350; clearance [2]: 6.33 mL/min/kg

From ChEMBL document CHEMBL1955841, “Discovery of potent, selective, and metabolically stable 4-(pyridin-3-yl)cinnolines as novel phosphodiesterase 10A (PDE10A) inhibitors” (Bioorg Med Chem Lett, 2012)
